Each structure is given as a SMILES string.
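Further: spheroids exposed to compounds for one week before readout; percent viability relative to DMSO vehicle wells taken as 100%.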

The first test concerns 317291-083-R-J1-PDC complex spheroids, viability. Nature of the test: Anticancer human tumor 317291-083-R-J1-PDC patient-derived soft tissue sarcoma cell line growth inhibition [GQUAD]. The settings on record: second compound 1 µM; first compound 0.316 µM; active compounds read low. The gist of the method: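 Multi-cell-type spheroids of tumor cells with HUVEC and mesenchymal stem cells, treated with drug combinations. Concentrations descend in half-log steps from near clinical Cmax, or from 10 microM where Cmax is unknown; viability read-out.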
Usually viability, T/C stands for the ratio of treated to control. With `C=CC(=O)N1CCN(c2nc(=O)n(-c3c(C)ccnc3C(C)C)c3nc(-c4c(O)cccc4F)c(F)cc23)C(C)C1` (stereo unspecified) + CN(C)c1ccc(Nc2c3ccc(NC(=O)CCN4CCCC4)cc3nc3cc(NC(=O)CCN4CCCC4)ccc23)cc1, the viability, T/C is 52.3%.

Consider `C=CC(=O)N1CCN(c2nc(=O)n(-c3c(C)ccnc3C(C)C)c3nc(-c4c(O)cccc4F)c(F)cc23)C(C)C1` (stereo unspecified) + Cc1cnc(CNC(=O)c2c(=O)c3ccc(N4CCCN(C)CC4)nc3n3c2sc2ccccc23)cn1, for which the viability, T/C is 31.9%.

As to `COc1cc(C2c3cc4c(cc3C(OC3OC5COC(C)OC5C(O)C3O)C3COC(=O)C23)OCO4)cc(OC)c1O` (stereo unspecified) + Cc1[nH]c2ccc(F)cc2c1-c1nc2c3cccnc3c3ncccc3c2[nH]1, the viability, T/C is 41.8%.

`O=C(NO)c1cnc(N2CCN(S(=O)(=O)c3ccc4ccccc4c3)CC2)nc1` + Cc1cnc(CNC(=O)c2c(=O)c3ccc(N4CCCN(C)CC4)nc3n3c2sc2ccccc23)cn1: the viability, T/C was 2.02%.

The test is the same for the next values; noted with them: second compound 1 µM; first compound 1 µM; active compounds read low.
`CC(C)(O)C1CCC(Nc2ccc3ncc(-c4cccc(C(F)(F)F)c4)n3n2)CC1` (stereo unspecified) + CN(C)c1ccc(Nc2c3ccc(NC(=O)CCN4CCCC4)cc3nc3cc(NC(=O)CCN4CCCC4)ccc23)cc1: the viability, T/C was 3.69%.

Regarding `C=CC(=O)N1CCN(c2nc(=O)n(-c3c(C)ccnc3C(C)C)c3nc(-c4c(O)cccc4F)c(F)cc23)C(C)C1` (stereo unspecified) + CN(C)c1ccc(Nc2c3ccc(NC(=O)CCN4CCCC4)cc3nc3cc(NC(=O)CCN4CCCC4)ccc23)cc1, the viability, T/C is 81.2%.

Turning to `C=CC(=O)N1CCN(c2nc(=O)n(-c3c(C)ccnc3C(C)C)c3nc(-c4c(O)cccc4F)c(F)cc23)C(C)C1` (stereo unspecified) + Cc1cnc(CNC(=O)c2c(=O)c3ccc(N4CCCN(C)CC4)nc3n3c2sc2ccccc23)cn1, the viability, T/C is 27.4%.

As to `COc1cc(C2c3cc4c(cc3C(OC3OC5COC(C)OC5C(O)C3O)C3COC(=O)C23)OCO4)cc(OC)c1O` (stereo unspecified) + Cc1[nH]c2ccc(F)cc2c1-c1nc2c3cccnc3c3ncccc3c2[nH]1, the viability, T/C is 20.2%.

As for `O=C(NO)c1cnc(N2CCN(S(=O)(=O)c3ccc4ccccc4c3)CC2)nc1` + Cc1cnc(CNC(=O)c2c(=O)c3ccc(N4CCCN(C)CC4)nc3n3c2sc2ccccc23)cn1, the viability, T/C is 0.07%.

Still in this test, the particulars now being: second compound 1 µM; first compound 3.16 µM; active compounds read low.
For `CC(C)(O)C1CCC(Nc2ccc3ncc(-c4cccc(C(F)(F)F)c4)n3n2)CC1` (stereo unspecified) + CN(C)c1ccc(Nc2c3ccc(NC(=O)CCN4CCCC4)cc3nc3cc(NC(=O)CCN4CCCC4)ccc23)cc1, the viability, T/C was 0.2%.

Turning to `C=CC(=O)N1CCN(c2nc(=O)n(-c3c(C)ccnc3C(C)C)c3nc(-c4c(O)cccc4F)c(F)cc23)C(C)C1` (stereo unspecified) + CN(C)c1ccc(Nc2c3ccc(NC(=O)CCN4CCCC4)cc3nc3cc(NC(=O)CCN4CCCC4)ccc23)cc1, the viability, T/C is 30.2%.

Turning to `C=CC(=O)N1CCN(c2nc(=O)n(-c3c(C)ccnc3C(C)C)c3nc(-c4c(O)cccc4F)c(F)cc23)C(C)C1` (stereo unspecified) + Cc1cnc(CNC(=O)c2c(=O)c3ccc(N4CCCN(C)CC4)nc3n3c2sc2ccccc23)cn1, the viability, T/C was 30.9%.

Turning to `COc1cc(C2c3cc4c(cc3C(OC3OC5COC(C)OC5C(O)C3O)C3COC(=O)C23)OCO4)cc(OC)c1O` (stereo unspecified) + Cc1[nH]c2ccc(F)cc2c1-c1nc2c3cccnc3c3ncccc3c2[nH]1, the viability, T/C is 13.6%.

Turning to `O=C(NO)c1cnc(N2CCN(S(=O)(=O)c3ccc4ccccc4c3)CC2)nc1` + Cc1cnc(CNC(=O)c2c(=O)c3ccc(N4CCCN(C)CC4)nc3n3c2sc2ccccc23)cn1, the viability, T/C is 0.04%.

The test is the same for the next values; noted with them: second compound 1 µM; first compound 10 µM; active compounds read low.
Regarding `CC(C)(O)C1CCC(Nc2ccc3ncc(-c4cccc(C(F)(F)F)c4)n3n2)CC1` (stereo unspecified) + CN(C)c1ccc(Nc2c3ccc(NC(=O)CCN4CCCC4)cc3nc3cc(NC(=O)CCN4CCCC4)ccc23)cc1, the viability, T/C is 0.13%.

On to `C=CC(=O)N1CCN(c2nc(=O)n(-c3c(C)ccnc3C(C)C)c3nc(-c4c(O)cccc4F)c(F)cc23)C(C)C1` (stereo unspecified) + CN(C)c1ccc(Nc2c3ccc(NC(=O)CCN4CCCC4)cc3nc3cc(NC(=O)CCN4CCCC4)ccc23)cc1, for which the viability, T/C was 22.5%.

As for `C=CC(=O)N1CCN(c2nc(=O)n(-c3c(C)ccnc3C(C)C)c3nc(-c4c(O)cccc4F)c(F)cc23)C(C)C1` (stereo unspecified) + Cc1cnc(CNC(=O)c2c(=O)c3ccc(N4CCCN(C)CC4)nc3n3c2sc2ccccc23)cn1, the viability, T/C was 14.8%.

With `COc1cc(C2c3cc4c(cc3C(OC3OC5COC(C)OC5C(O)C3O)C3COC(=O)C23)OCO4)cc(OC)c1O` (stereo unspecified) + Cc1[nH]c2ccc(F)cc2c1-c1nc2c3cccnc3c3ncccc3c2[nH]1, the viability, T/C was 13.2%.

Take `O=C(NO)c1cnc(N2CCN(S(=O)(=O)c3ccc4ccccc4c3)CC2)nc1` + Cc1cnc(CNC(=O)c2c(=O)c3ccc(N4CCCN(C)CC4)nc3n3c2sc2ccccc23)cn1: the viability, T/C was 0.08%.

Still in this test, the particulars now being: second compound 3.16 µM; first compound 0.0316 µM; active compounds read low.
Take `CC(C)(O)C1CCC(Nc2ccc3ncc(-c4cccc(C(F)(F)F)c4)n3n2)CC1` (stereo unspecified) + CN(C)c1ccc(Nc2c3ccc(NC(=O)CCN4CCCC4)cc3nc3cc(NC(=O)CCN4CCCC4)ccc23)cc1: the viability, T/C is 5.54%.

As to `C=CC(=O)N1CCN(c2nc(=O)n(-c3c(C)ccnc3C(C)C)c3nc(-c4c(O)cccc4F)c(F)cc23)C(C)C1` (stereo unspecified) + CN(C)c1ccc(Nc2c3ccc(NC(=O)CCN4CCCC4)cc3nc3cc(NC(=O)CCN4CCCC4)ccc23)cc1, the viability, T/C was 32.1%.

Take `C=CC(=O)N1CCN(c2nc(=O)n(-c3c(C)ccnc3C(C)C)c3nc(-c4c(O)cccc4F)c(F)cc23)C(C)C1` (stereo unspecified) + Cc1cnc(CNC(=O)c2c(=O)c3ccc(N4CCCN(C)CC4)nc3n3c2sc2ccccc23)cn1: the viability, T/C was 21.3%.

For `COc1cc(C2c3cc4c(cc3C(OC3OC5COC(C)OC5C(O)C3O)C3COC(=O)C23)OCO4)cc(OC)c1O` (stereo unspecified) + Cc1[nH]c2ccc(F)cc2c1-c1nc2c3cccnc3c3ncccc3c2[nH]1, the viability, T/C is 80.8%.

As for `O=C(NO)c1cnc(N2CCN(S(=O)(=O)c3ccc4ccccc4c3)CC2)nc1` + Cc1cnc(CNC(=O)c2c(=O)c3ccc(N4CCCN(C)CC4)nc3n3c2sc2ccccc23)cn1, the viability, T/C was 8.49%.

Still in this test, the particulars now being: second compound 3.16 µM; first compound 0.1 µM; active compounds read low.
Turning to `CC(C)(O)C1CCC(Nc2ccc3ncc(-c4cccc(C(F)(F)F)c4)n3n2)CC1` (stereo unspecified) + CN(C)c1ccc(Nc2c3ccc(NC(=O)CCN4CCCC4)cc3nc3cc(NC(=O)CCN4CCCC4)ccc23)cc1, the viability, T/C was 1.6%.

In the case of `C=CC(=O)N1CCN(c2nc(=O)n(-c3c(C)ccnc3C(C)C)c3nc(-c4c(O)cccc4F)c(F)cc23)C(C)C1` (stereo unspecified) + CN(C)c1ccc(Nc2c3ccc(NC(=O)CCN4CCCC4)cc3nc3cc(NC(=O)CCN4CCCC4)ccc23)cc1, the viability, T/C was 22%.

(Values after PubChem BioAssay AID2060497 (Molecular Pharmacology Branch, DTP, NCI, 2025).)
